Laboratory results as given in US4968708A, “Imidazo[2,1-B]benzothiazole compounds and antiulcer compositions containing the same” (priority 1988, dated 1990).

Legend:
[1] = tested on: gastric juice secretion; assay: Gastric juice secretion inhibition activity (pyloric ligature); format: in vivo, Wistar strain male rats; settings: rats, 100 mg/kg p.o.; for inhibition in vivo at 100 mg/kg: Rattus norvegicus, po, vs control group, read-out: Volume Inhibition Rate
Method: A suspension of each test compound in a 5% gum arabic aqueous solution was orally given to Wistar strain male rats (at the age of 7 to 8 weeks, weighing 180 to 250 g; 7-9 rats in the group administered with the test compound; 14-17 rats in the control group) fasted for 24 hours at a dose of 100 mg of the test compound/5 ml/kg. Thirty minutes after administration, pyloric ligature was made under ethereal anesthesia. Four hours thereafter, the stomach was excised under ethereal anesthesia to collect gastric juice. The collected gastric juice was centrifuged (2500 rpm) at 4° C. for 10 minutes. After the supernatant was collected, the amount of the gastric juice and its pH were measured using a pH meter. Furthermore, the amount of free hydrochloric acid and the total acidity were measured with Topfer reagent and phenolphthalein reagent, respectively. Using a part of the gastric juice, pepsin output in the gastric juice was measured using casein as a substrate in a manner similar to the method of Anson et al.
(§1) In the control group, a 5% gum arabic aqueous solution was orally administered at a dose of 5 ml/kg.

[2] = tested on: aspirin-induced ulcer; assay: Antiulcer activity against aspirin-induced ulcer model; format: in vivo, Wistar strain male rats; settings: rats, 100 mg/kg p.o. 30 min before aspirin 200 mg/kg p.o.; for inhibition in vivo at 100 mg/kg: Rattus norvegicus, po, 7 h, vs control group, read-out: Aspirin Induced Ulcer Inhibition Rate; for Aspirin Induced Ulcer Ulcer Index: stomach excised 7 h after aspirin
Method: Thirty minutes after administration, aspirin was further orally administered at a dose of 200 mg/kg. Seven hours after administration of aspirin, the stomach was excised under ethereal anesthesia and spotted and linear erosion and a long diameter of any ulcer were microscopically measured to determine an ulcer index and an inhibition rate.
as §1

[3] = tested on: water-immersion stress ulcer; assay: Antiulcer activity against water-immersion stress ulcer; format: in vivo, Wistar strain male rats; settings: rats; for inhibition in vivo at 100 mg/kg: Rattus norvegicus, po, 6 h, 100 mg/kg p.o. 30 min before 6 h water immersion, vs control group, read-out: Water-Immersion Stress Ulcer Inhibition Rate; for Water-Immersion Stress Ulcer Ulcer Index: 100 mg/kg p.o. 30 min before 6 h water immersion at 22°±1° C.
Method: A suspension of each test compound in a 5% gum arabic aqueous solution was orally given to Wistar strain male rats (at the age of 7 to 8 weeks, weighing 180 to 250 g; 7-9 rats in the group administered with the test compound; 10-16 rats in the control group) fasted for 24 hours at a dose of 100 mg of the test compound/5 ml/kg. Thirty minutes after administration, the animal was immersed in a water bath at 22°±1° C. up to the xiphisternum using a stress cage made by Tokyo University, Faculty of Pharmacology, to apply a stress load for 6 hours. After applying the stress load, the rats had the cervical vertebra dislocated to death. Then, the stomach was excised and, spotted and linear erosion and a long diameter of any ulcer were microscopically measured to determine an ulcer index and an inhibition rate.
as §1

[4] = tested on: ddy strain male mice; assay: Acute toxicity; format: in vivo; settings: 7 days observation
Method: A suspension of each test compound in a 5% gum arabic aqueous solution was orally given to ddy strain male mice (at the age of 4 to 5 weeks, weighing 25 to 35 g; 2 to 9 mice in one group). For 7 days after the administration, the mice were observed as to if they were dead or alive. Based on the number of deaths, the LD50 value was determined by the Probit method.

[5] = pyloric ligature 30 min later, gastric juice collected after 4 h
[6] = pyloric ligature, 4 h, first part of Table 5
[7] = pyloric ligature, 4 h, second part of Table 5

Structure (SMILES)	inhibition in vivo at 100 mg/kg ([1]; 4 h, pyloric ligature, 4 h) [%]	Volume (gastric juice) [1, 5] [mL]	Acidity ([1]; pyloric ligature, 4 h) [mEq/l]	Free HCl ([1]; pyloric ligature, 4 h) [mEq/l]	Pepsin Activity ([1]; pyloric ligature, 4 h) [units/ml]	Pepsin Output ([1]; pyloric ligature, 4 h) [units/hr]	pH (gastric juice) [1, 6]	inhibition in vivo at 100 mg/kg [2] [%]	Aspirin Induced Ulcer Ulcer Index [2] [mm^2]	inhibition in vivo at 100 mg/kg [3] [%]	Water-Immersion Stress Ulcer Ulcer Index [3] [mm^2]	Acid Output [1, 7] [mcEq/100 g]	Free HCl [1, 7] [mcEq/100 g]	Pepsin Output [1, 7] [mg tyrosine/100 g]	Volume (gastric juice) [1, 7] [ml/100 g]	pH (gastric juice) [1, 7]	Mortality (No. death/No. treated) ([4]; 500 mg/kg p.o)	Mortality (No. death/No. treated) ([4]; 1000 mg/kg p.o)
COc1cc2c(sc3nc(C)c(CO)n32)c(OC)c1OC [Example 10, 6,7,8-Trimethoxy-2-methylimidazo[2,1-b]benzothiazole-3-methanol]	17.5	5.2 ± 0.5	87.3 ± 3.5	50.4 ± 3.2	103.5 ± 1.8	133.7 ± 10.8	1.47 ± 0.03	29.5	53.7 ± 8.3	27.3	9.6 ± 2.1							
Cc1nc2sc3cc(F)ccc3n2c1CO [Example 11, 7-Fluoro-2-methylimidazo[2,1-b]benzothiazole-3-methanol]								51.8	34.2 ± 2.2	54	10.9 ± 4.4	118.8 ± 37.2	89.1 ± 35.5	16.7 ± 2.9	1.40 ± 0.34	1.58 ± 0.15	0/5	0/5
Cc1nc2sc3ccccc3n2c1COC(C)C.Cl [Example 13, 2-Methylimidazo[2,1-b]benzothiazole-3-methanol isopropyl ether hydrochloride]								71	24.4 ± 3.3			57.6 ± 16.4	22.3 ± 10.7	13.0 ± 2.3	1.29 ± 0.23	2.70 ± 0.53	0/5	5/5
COc1ccc(COCc2c(C)nc3sc4ccccc4n23)cc1 [Example 14, 2-Methylimidazo[2,1-b]benzothiazole-3-methanol (4-methoxy-benzyl) ether]								15	71.5 ± 8.0	39	7.5 ± 2.2	196.8 ± 38.0	144.9 ± 35.0	22.4 ± 3.8	2.63 ± 0.35	1.42 ± 0.08	0/5	0/5
COc1ccccc1C(=O)OCc1c(C)nc2sc3ccccc3n12 [Example 18]	-35	8.1 ± 0.8	82.1 ± 5.0	51.7 ± 5.8	91.4 ± 3.3	186.6 ± 24.3	1.45 ± 0.06	32.2	45.3 ± 10.4	42.1	13.5 ± 4.1							
CCNC(=O)OCc1c(C)nc2sc3ccccc3n12 [Example 20, 2-Methylimidazo[2,1-b]benzothiazole 3-methyl ethyl carbamate]	6.3	5.9 ± 0.3	54.5 ± 7.0	26.1 ± 5.5	91.6 ± 1.7	136.0 ± 7.2	1.89 ± 0.12	26.2	56.2 ± 6.8	69.7	4.0 ± 1.3							
